Experimental data: patent US20140155406A1, “4-IMIDAZOPYRIDAZIN-1-YL-BENZAMIDES AND 4-IMIDAZOTRIAZIN-1-YL-BENZAMIDES BTK INHIBITORS” (priority 2011, published 2014)

What was measured:
Format in all cases: biochemical
Lyn enzyme = target: T1, Lyn enzyme (Homo sapiens, UniProt P07948); assay: Lyn enzyme activity, IMAP fluorescence polarization assay; conditions: 60 min pre-incubation, 2 μM ATP (Km)
T1 construct: purchased Millipore 14-510
Method: Lyn enzyme activity is measured using the IMAP (immobilized metal ion affinity-based fluorescence polarization) assay as outlined below.
Lyn enzyme (Millipore catalog#14-510), is diluted to 250 mU/mL in KR buffer (10 mM Tris-HCl, 10 mM MgCl2, 0.01% Tween-20, 0.05% NaN3, 1 mM DTT, 2 mM MnCl2, pH 7.2). Serial dilution log 10 from 2 mM to 63.2 nM of test compounds are made in 100% DMSO. The dilutions in DMSO are then diluted 50-fold in KR-buffer of which 5 μl is used in the assay, leading to a final compound concentration range in the assay from 10 μM to 0.316 nM. 5 μL/well of test compound in KR buffer (final DMSO concentration in the assay is 1%) is mixed with 5 μl/well of 250 mU/mL Lyn enzyme (final concentration in the assay is 62.5 mU/mL). Test compounds and Lyn enzyme are pre-incubated 60 minutes at room temperature, before adding 5 μL/well of 400 nM Fluorescin labeled substrate peptide (Blk/Lyntide substrate, e.g. #R7188/#R7233, Molecular Devices) in KR-buffer. Final peptide substrate concentration in assay is 100 nM. The kinase assay is started by adding 5 μL/well of 8 μM ATP in KR-buffer (final ATP concentration is 2 μM ATP, Km ATP in Lyn IMAP assay). Following incubation for 2 h at room temperature the enzyme reaction is stopped by adding 40 μL/well IMAP Progressive Binding Solution (according to suppliers (Molecular Devices) protocol using 75% 1× buffer A and 25% 1× buffer B with 1:600 Progressive Binding Solution). After 60 min incubation at room temperature in the dark the FP signal is read. Fluorescence at 535 nm is measured using parallel and perpendicular filters to determine differences in rotation due to binding of the phosphorylated substrate peptide to the beads. Values are calculated as percentage of the difference in readout (ΔmPi) of the controls with and without ATP. EC50 values are determined by curve fitting of the experimental results using Activity Base.

Src enzyme = target: T2, Src enzyme (Homo sapiens, UniProt P12931); assay: Src enzyme activity, IMAP fluorescence polarization assay; conditions: 60 min pre-incubation, 4 μM ATP (Km)
T2 construct: purchased Millipore 14-326
Method: Src enzyme activity is measured using the IMAP (immobilized metal ion affinity-based fluorescence polarization) assay as outlined below.
Src enzyme (Millipore catalog#14-326), is diluted to 0.8 U/mL in KR buffer (10 mM Tris-HCl, 10 mM MgCl2, 0.01% Tween-20, 0.05% NaN3, 1 mM DTT, 2 mM MnCl2, pH 7.2).
Serial dilution log 10 from 2 mM to 63.2 nM of test compounds are made in 100% DMSO. The dilutions in DMSO are then diluted 50-fold in KR-buffer of which 5 μl is used in the assay, leading to a final compound concentration range in the assay from 10 μM to 0.316 nM. 5 μL/well of test compound in KR buffer (final DMSO concentration in the assay is 1%) is mixed with 5 μl/well of 0.8 U/mL Src enzyme (final concentration in the assay is 0.2 U/mL). Test compounds and Src enzyme are pre-incubated 60 minutes at room temperature, before adding 5 μL/well of 400 nM Fluorescin labeled substrate peptide (p34cdc2 substrate peptide, e.g. #R7157/#R7172, Molecular Devices) in KR-buffer. Final peptide substrate concentration in assay is 100 nM. The kinase assay is started by adding 5 μL/well of 16 μM ATP in KR-buffer (final ATP concentration is 4 μM ATP, Km ATP in Src IMAP assay). Following incubation for 2 h at room temperature the enzyme reaction is stopped by adding 40 μL/well IMAP Progressive Binding Solution (according to suppliers (Molecular Devices) protocol using 75% 1× buffer A and 25% 1× buffer B with 1:600 Progressive Binding Solution). After 60 min incubation at room temperature in the dark the FP signal is read. Fluorescence at 535 nm is measured using parallel and perpendicular filters to determine differences in rotation due to binding of the phosphorylated substrate peptide to the beads. Values are calculated as percentage of the difference in readout (ΔmPi) of the controls with and without ATP. EC50 values are determined by curve fitting of the experimental results using Activity Base.

Lck enzyme = target: T3, Lck enzyme (Homo sapiens, UniProt P06239); assay: Lck enzyme activity, IMAP fluorescence polarization assay; conditions: 60 min pre-incubation, 6 μM ATP (Km)
T3 construct: purchased Millipore 14-442
Method: Lck enzyme activity is measured using the IMAP (immobilized metal ion affinity-based fluorescence polarization) assay as outlined below.
Lck enzyme (Millipore catalog#14-442), is diluted to 0.4 U/mL in KR buffer (10 mM Tris-HCl, 10 mM MgCl2, 0.01% Tween-20, 0.05% NaN3, 1 mM DTT, 2 mM MnCl2, pH 7.2). Serial dilution log 10 from 2 mM to 63.2 nM of test compounds are made in 100% DMSO. The dilutions in DMSO are then diluted 50-fold in KR-buffer of which 5 μl is used in the assay, leading to a final compound concentration range in the assay from 10 μM to 0.316 nM. 5 μL/well of test compound in KR buffer (final DMSO concentration in the assay is 1%) is mixed with 5 μl/well of 0.4 U/mL Lck enzyme (final concentration in the assay is 0.1 U/mL). Test compounds and Lck enzyme are pre-incubated 60 minutes at room temperature, before adding 5 μL/well of 400 nM Fluorescin labeled substrate peptide (p34cdc2 substrate peptide, e.g. #R7157/#R7172, Molecular Devices) in KR-buffer. Final peptide substrate concentration in assay is 100 nM. The kinase assay is started by adding 5 μL/well of 24 μM ATP in KR-buffer (final ATP concentration is 6 μM ATP, Km ATP in Lck IMAP assay). Following incubation for 2 h at room temperature the enzyme reaction is stopped by adding 40 μL/well IMAP Progressive Binding Solution (according to suppliers (Molecular Devices) protocol using 75% 1× buffer A and 25% 1× buffer B with 1:600 Progressive Binding Solution). After 60 min incubation at room temperature in the dark the FP signal is read. Fluorescence at 535 nm is measured using parallel and perpendicular filters to determine differences in rotation due to binding of the phosphorylated substrate peptide to the beads. Values are calculated as percentage of the difference in readout (ΔmPi) of the controls with and without ATP. EC50 values are determined by curve fitting of the experimental results using Activity Base.

FynT enzyme = target: T4, FynT enzyme (Homo sapiens, UniProt P06241); assay: FynT enzyme activity, IMAP fluorescence polarization assay; conditions: 60 min pre-incubation, 0.2 μM ATP (Km)
T4 construct: purchased Biomol SE-287
Method: FynT enzyme activity is measured using the IMAP (immobilized metal ion affinity-based fluorescence polarization) assay as outlined below.
FynT enzyme (Biomol catalog# SE-287), is diluted to 0.5 μg/mL in KR buffer (10 mM Tris-HCl, 10 mM MgCl2, 0.01% Tween-20, 0.05% NaN3, 1 mM DTT, 2 mM MnCl2, pH 7.2). Serial dilution log 10 from 2 mM to 63.2 nM of test compounds are made in 100% DMSO. The dilutions in DMSO are then diluted 50-fold in KR-buffer of which 5 μl is used in the assay, leading to a final compound concentration range in the assay from 10 μM to 0.316 nM. 5 μL/well of test compound in KR buffer (final DMSO concentration in the assay is 1%) is mixed with 5 μl/well of 0.5 μg/mL FynT enzyme (final concentration in the assay is 125 ng/mL). Test compounds and FynT enzyme are pre-incubated 60 minutes at room temperature, before adding 5 μL/well of 400 nM Fluorescin labeled substrate peptide (p34cdc2 substrate peptide, e.g. #R7157/#R7172, Molecular Devices) in KR-buffer. Final peptide substrate concentration in assay is 100 nM. The kinase assay is started by adding 5 μL/well of 0.8 μM ATP in KR-buffer (final ATP concentration is 0.2 μM ATP, Km ATP in FynT IMAP assay). Following incubation for 2 h at room temperature the enzyme reaction is stopped by adding 40 μL/well IMAP Progressive Binding Solution (according to suppliers (Molecular Devices) protocol using 75% 1× buffer A and 25% 1× buffer B with 1:600 Progressive Binding Solution). After 60 min incubation at room temperature in the dark the FP signal is read. Fluorescence at 535 nm is measured using parallel and perpendicular filters to determine differences in rotation due to binding of the phosphorylated substrate peptide to the beads. Values are calculated as percentage of the difference in readout (ΔmPi) of the controls with and without ATP. EC50 values are determined by curve fitting of the experimental results using Activity Base.

Measured: EC50

T3 sequence (P06239 whole entry): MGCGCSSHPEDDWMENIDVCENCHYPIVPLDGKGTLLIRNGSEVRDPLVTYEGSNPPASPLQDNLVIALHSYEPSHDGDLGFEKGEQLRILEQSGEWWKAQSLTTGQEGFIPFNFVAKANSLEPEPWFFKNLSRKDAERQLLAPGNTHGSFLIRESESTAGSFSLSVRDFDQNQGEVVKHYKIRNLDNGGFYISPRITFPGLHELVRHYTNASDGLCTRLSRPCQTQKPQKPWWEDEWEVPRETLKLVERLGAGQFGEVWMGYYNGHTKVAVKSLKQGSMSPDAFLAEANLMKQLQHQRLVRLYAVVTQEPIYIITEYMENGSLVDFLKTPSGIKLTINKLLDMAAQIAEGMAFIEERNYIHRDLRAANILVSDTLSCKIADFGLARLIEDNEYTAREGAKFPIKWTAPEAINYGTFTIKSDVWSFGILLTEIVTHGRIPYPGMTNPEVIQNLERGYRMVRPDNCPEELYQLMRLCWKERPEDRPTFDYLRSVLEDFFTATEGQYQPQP
T2 sequence (P12931 whole entry): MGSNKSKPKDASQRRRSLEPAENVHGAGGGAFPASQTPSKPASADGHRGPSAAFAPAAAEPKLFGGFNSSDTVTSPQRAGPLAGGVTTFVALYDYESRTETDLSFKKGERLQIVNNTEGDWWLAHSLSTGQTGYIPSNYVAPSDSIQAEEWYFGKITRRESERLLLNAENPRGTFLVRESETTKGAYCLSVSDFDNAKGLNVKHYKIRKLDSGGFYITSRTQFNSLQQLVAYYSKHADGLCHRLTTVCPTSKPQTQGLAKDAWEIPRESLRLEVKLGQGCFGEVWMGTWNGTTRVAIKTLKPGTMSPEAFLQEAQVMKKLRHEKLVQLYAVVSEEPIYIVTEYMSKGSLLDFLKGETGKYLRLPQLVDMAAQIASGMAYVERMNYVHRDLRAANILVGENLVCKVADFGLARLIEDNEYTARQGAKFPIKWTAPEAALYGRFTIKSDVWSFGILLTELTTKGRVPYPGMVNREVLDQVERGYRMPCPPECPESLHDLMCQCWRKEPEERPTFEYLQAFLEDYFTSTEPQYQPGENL
T4 sequence (P06241 1-534 isoform P06241-2): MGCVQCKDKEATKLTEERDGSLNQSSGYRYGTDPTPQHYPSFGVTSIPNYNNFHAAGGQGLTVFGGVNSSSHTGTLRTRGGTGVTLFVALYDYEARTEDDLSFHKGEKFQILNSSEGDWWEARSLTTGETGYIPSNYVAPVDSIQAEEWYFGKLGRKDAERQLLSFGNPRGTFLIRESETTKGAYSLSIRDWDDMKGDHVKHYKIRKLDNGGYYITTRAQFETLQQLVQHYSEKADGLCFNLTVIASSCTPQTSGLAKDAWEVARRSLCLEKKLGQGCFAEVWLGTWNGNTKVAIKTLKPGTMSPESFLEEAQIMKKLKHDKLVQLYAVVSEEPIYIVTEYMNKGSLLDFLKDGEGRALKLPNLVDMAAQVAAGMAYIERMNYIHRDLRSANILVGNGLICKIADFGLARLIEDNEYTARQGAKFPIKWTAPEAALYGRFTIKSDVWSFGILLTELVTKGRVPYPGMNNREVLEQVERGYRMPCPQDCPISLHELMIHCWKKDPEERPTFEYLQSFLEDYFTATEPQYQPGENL
T1 sequence (P07948 whole entry): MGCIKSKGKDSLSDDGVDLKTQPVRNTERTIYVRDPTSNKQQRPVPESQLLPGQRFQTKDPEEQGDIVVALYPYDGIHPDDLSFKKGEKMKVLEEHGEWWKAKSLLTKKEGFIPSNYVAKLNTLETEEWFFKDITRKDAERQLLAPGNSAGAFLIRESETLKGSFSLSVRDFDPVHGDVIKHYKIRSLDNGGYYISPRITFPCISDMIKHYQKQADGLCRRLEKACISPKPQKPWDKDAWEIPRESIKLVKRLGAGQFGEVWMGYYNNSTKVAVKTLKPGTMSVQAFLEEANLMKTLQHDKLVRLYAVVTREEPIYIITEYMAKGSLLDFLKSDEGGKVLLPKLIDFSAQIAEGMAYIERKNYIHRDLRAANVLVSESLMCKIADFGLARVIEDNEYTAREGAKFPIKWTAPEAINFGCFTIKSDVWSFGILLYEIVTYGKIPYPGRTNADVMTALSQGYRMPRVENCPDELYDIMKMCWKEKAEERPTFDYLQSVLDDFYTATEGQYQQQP

Cc1nccn2c([C@@H]3CCCN3C(=O)/C=C/CN(C)C)nc(-c3ccc(C(=O)Nc4ccccn4)cc3)c12 [Example 31, (S,E)-4-(3-(1-(4-(dimethylamino)but-2-enoyl)pyrrolidin-2-yl)-8-methylimidazo[1,5-a]pyrazin-1-yl)-N-(pyridin-2-yl)benzamide]
≥ 1000 nM: all assays above

CC#CC(=O)N1CCC[C@H]1c1nc(-c2ccc(C(=O)Nc3cc(CCC)ccn3)cc2)c2c(C)nccn12 [Example 33, (S)-4-(3-(1-but-2-ynoylpyrrolidin-2-yl)-8-methylimidazo[1,5-a]pyrazin-1-yl)-N-(4-propylpyridin-2-yl)benzamide]
≥ 1000 nM: all assays above

CC#CC(=O)N1CCC[C@H]1c1nc(-c2ccc(C(=O)Nc3cc(C(F)(F)F)ccn3)cc2)c2c(C)nccn12 [Example 26, (S)-4-(3-(1-but-2-ynoylpyrrolidin-2-yl)-8-methylimidazo[1,5-a]pyrazin-1-yl)-N-(4-(trifluoromethyl)pyridin-2-yl)benzamide]
≥ 1000 nM: all assays above

CC#CC(=O)N1CCC[C@H]1c1nc(-c2ccc(C(=O)Nc3cc(C#N)ccn3)cc2)c2c(C)nccn12 [Example 32, (S)-4-(3-(1-but-2-ynoylpyrrolidin-2-yl)-8-methylimidazo[1,5-a]pyrazin-1-yl)-N-(4-cyanopyridin-2-yl)benzamide]
≥ 1000 nM: all assays above

CCCc1ccnc(NC(=O)c2ccc(-c3nc([C@@H]4CCCCN4C(=O)c4ccnc(Cl)n4)n4ccnc(C)c34)cc2)c1 [Example 5, (S)-4-(3-(1-(2-chloropyrimidine-4-carbonyl)piperidin-2-yl)-8-methylimidazo[1,5-a]pyrazin-1-yl)-N-(4-propylpyridin-2-yl)benzamide]
≥ 1000 nM: all assays above
